{
  "source": "patent US20030129629A1",
  "about": "“Methods and compositions for the identification, assessment, prevention, and therapy of human cancers” (Millennium Pharmaceuticals, Inc., priority 2000, published 2003)",
  "key": {"[1]": {"tested_on": "60 cancer cell lines (NCI 60 cancer cell line series)", "test": "NCI-DTP in vitro cancer screen, sulforhodamine B (SRB) growth inhibition, 48 hour exposure", "type": "cell-based, human", "method_in_brief": "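NCI-DTP panel of 60 cancer cell lines plated day 0 at line-specific densities, exposed from day 1 to compound at 5 ten-fold-spaced doses in duplicate wells. After 48 h, cell mass stained with sulforhodamine B; −log GI50 derived from dose–response curves, averaged, and classed Low, Medium or High sensitivity.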"}, "[2]": {"tested_on": "60 cancer cell lines (NCI 60 cancer cell line series)", "conditions": "cited from earlier work"}},
  "note": "Like-named read-outs stand apart in the source and are kept apart here.",
  "data": [
    {"compound": "COc1cccc2c1C(=O)c1c(O)c3c(c(O)c1C2=O)C[C@@](O)(C(C)=O)C[C@@H]3O[C@H]1C[C@H](N)[C@H](O)[C@H](C)O1", "note": "[Daunorubicin]", "values": [
      {"measurement": "classification of cell line as Low(1), Medium(2), High(3) sensitivity to compound", "setting": "[1]; Breast BT-549 CL5013", "value": 1},
      {"measurement": "classification of cell line as Low(1), Medium(2), High(3) sensitivity to compound", "setting": "[1]; Breast MCF7(I) CL5001", "value": 3},
      {"measurement": "classification of cell line as Low(1), Medium(2), High(3) sensitivity to compound", "setting": "[1]; Breast MCF7/ADRr CL5002", "value": 1},
      {"measurement": "classification of cell line as Low(1), Medium(2), High(3) sensitivity to compound", "setting": "[1]; Breast MDA-MB-231 CL5005", "value": 1},
      {"measurement": "classification of cell line as Low(1), Medium(2), High(3) sensitivity to compound", "setting": "[1]; Breast MDA-MB-435 CL5011", "value": 1},
      {"measurement": "classification of cell line as Low(1), Medium(2), High(3) sensitivity to compound", "setting": "[1]; Breast MDA-N CL5012", "value": 1},
      {"measurement": "classification of cell line as Low(1), Medium(2), High(3) sensitivity to compound", "setting": "[1]; Breast T-47D CL5014", "value": 2},
      {"measurement": "classification of cell line as Low(1), Medium(2), High(3) sensitivity to compound", "setting": "[1]; CNS SF-268 CL12014", "value": 2},
      {"measurement": "classification of cell line as Low(1), Medium(2), High(3) sensitivity to compound", "setting": "[1]; CNS SF-295 CL12015", "value": 2},
      {"measurement": "classification of cell line as Low(1), Medium(2), High(3) sensitivity to compound", "setting": "[1]; CNS SNB-19 CL12002", "value": 2},
      {"measurement": "classification of cell line as Low(1), Medium(2), High(3) sensitivity to compound", "setting": "[1]; CNS SNB-75(I) CL12005", "value": 2},
      {"measurement": "classification of cell line as Low(1), Medium(2), High(3) sensitivity to compound", "setting": "[1]; CNS U251(I) CL12009", "value": 2},
      {"measurement": "classification of cell line as Low(1), Medium(2), High(3) sensitivity to compound", "setting": "[1]; Colon COLO-250 CL4010", "value": 1},
      {"measurement": "classification of cell line as Low(1), Medium(2), High(3) sensitivity to compound", "setting": "[1]; Colon HCC-2998 CL4002", "value": 1},
      {"measurement": "classification of cell line as Low(1), Medium(2), High(3) sensitivity to compound", "setting": "[1]; Colon HCT-15 CL4015", "value": 1},
      {"measurement": "classification of cell line as Low(1), Medium(2), High(3) sensitivity to compound", "setting": "[1]; Colon HCT-116 CL4003", "value": 2},
      {"measurement": "classification of cell line as Low(1), Medium(2), High(3) sensitivity to compound", "setting": "[1]; Colon HT29(I) CL4001", "value": 2},
      {"measurement": "classification of cell line as Low(1), Medium(2), High(3) sensitivity to compound", "setting": "[1]; Colon SW-620 CL4009", "value": 2},
      {"measurement": "classification of cell line as Low(1), Medium(2), High(3) sensitivity to compound", "setting": "[1]; Leukemia CCRF-CEM(I) CL7003", "value": 3},
      {"measurement": "classification of cell line as Low(1), Medium(2), High(3) sensitivity to compound", "setting": "[1]; Leukemia HL-60(I) CL7008", "value": 3},
      {"measurement": "classification of cell line as Low(1), Medium(2), High(3) sensitivity to compound", "setting": "[1]; Leukemia MOLT-4 CL7006", "value": 3},
      {"measurement": "classification of cell line as Low(1), Medium(2), High(3) sensitivity to compound", "setting": "[1]; Leukemia SR CL7019", "value": 3},
      {"measurement": "classification of cell line as Low(1), Medium(2), High(3) sensitivity to compound", "setting": "[1]; Melanoma M14 CL10014", "value": 1},
      {"measurement": "classification of cell line as Low(1), Medium(2), High(3) sensitivity to compound", "setting": "[1]; Melanoma MALME-3M CL10002", "value": 2},
      {"measurement": "classification of cell line as Low(1), Medium(2), High(3) sensitivity to compound", "setting": "[1]; Melanoma SK-MEL-5 CL10007", "value": 2},
      {"measurement": "classification of cell line as Low(1), Medium(2), High(3) sensitivity to compound", "setting": "[1]; Melanoma SK-MEL-28 CL10008", "value": 1},
      {"measurement": "classification of cell line as Low(1), Medium(2), High(3) sensitivity to compound", "setting": "[1]; Melanoma UACC-62 CL10020", "value": 2},
      {"measurement": "classification of cell line as Low(1), Medium(2), High(3) sensitivity to compound", "setting": "[1]; Melanoma UACC-257 CL10021", "value": 1},
      {"measurement": "classification of cell line as Low(1), Medium(2), High(3) sensitivity to compound", "setting": "[1]; NSCLC A549/ATCC CL1004", "value": 2},
      {"measurement": "classification of cell line as Low(1), Medium(2), High(3) sensitivity to compound", "setting": "[1]; NSCLC EKVX CL1008", "value": 1},
      {"measurement": "classification of cell line as Low(1), Medium(2), High(3) sensitivity to compound", "setting": "[1]; NSCLC HOP-62 CL1026", "value": 2},
      {"measurement": "classification of cell line as Low(1), Medium(2), High(3) sensitivity to compound", "setting": "[1]; NSCLC HOP-92 CL1029", "value": 2},
      {"measurement": "sensitivity classification Low(1)/Medium(2)/High(3)", "setting": "[1]; NSCLC NCI-H23(I) CL1001", "value": 2},
      {"measurement": "classification of cell line as Low(1), Medium(2), High(3) sensitivity to compound", "setting": "[1]; NSCLC NCI-H226 CL1013", "value": 2},
      {"measurement": "sensitivity classification Low(1)/Medium(2)/High(3)", "setting": "[1]; NSCLC NCI-H332M CL1017", "value": 1},
      {"measurement": "sensitivity classification Low(1)/Medium(2)/High(3)", "setting": "[1]; NSCLC NCI-H460 CL1021", "value": 3},
      {"measurement": "sensitivity classification Low(1)/Medium(2)/High(3)", "setting": "[1]; NSCLC NCI-H522 CL1003", "value": 2},
      {"measurement": "sensitivity classification Low(1)/Medium(2)/High(3)", "setting": "[1]; Ovarian IGROV1 CL6010", "value": 2},
      {"measurement": "sensitivity classification Low(1)/Medium(2)/High(3)", "setting": "[1]; Ovarian OVCAR-3 CL6001", "value": 1},
      {"measurement": "sensitivity classification Low(1)/Medium(2)/High(3)", "setting": "[1]; Ovarian OVCAR-4 CL6002", "value": 1},
      {"measurement": "sensitivity classification Low(1)/Medium(2)/High(3)", "setting": "[1]; Ovarian OVCAR-5 CL6003", "value": 1},
      {"measurement": "sensitivity classification Low(1)/Medium(2)/High(3)", "setting": "[1]; Ovarian OVCAR-8 CL6005", "value": 2},
      {"measurement": "sensitivity classification Low(1)/Medium(2)/High(3)", "setting": "[1]; Prostate DU-145 CL11003", "value": 2},
      {"measurement": "sensitivity classification Low(1)/Medium(2)/High(3)", "setting": "[1]; Prostate PC-3(I) CL11001", "value": 2},
      {"measurement": "sensitivity classification Low(1)/Medium(2)/High(3)", "setting": "[1]; Renal 786-0 CL9018", "value": 2},
      {"measurement": "sensitivity classification Low(1)/Medium(2)/High(3)", "setting": "[1]; Renal A498 CL9013", "value": 1},
      {"measurement": "sensitivity classification Low(1)/Medium(2)/High(3)", "setting": "[1]; Renal ACHN CL9023", "value": 2},
      {"measurement": "sensitivity classification Low(1)/Medium(2)/High(3)", "setting": "[1]; Renal CAKI-1 CL9015", "value": 2},
      {"measurement": "sensitivity classification Low(1)/Medium(2)/High(3)", "setting": "[1]; Renal RXF-393 CL9016", "value": 1},
      {"measurement": "sensitivity classification Low(1)/Medium(2)/High(3)", "setting": "[1]; Renal SN12C CL9008", "value": 2},
      {"measurement": "sensitivity classification Low(1)/Medium(2)/High(3)", "setting": "[1]; Renal TK10 CL9024", "value": 1},
      {"measurement": "sensitivity classification Low(1)/Medium(2)/High(3)", "setting": "[1]; Renal UO-31 CL9004", "value": 1},
      {"measurement": "−Log (GI50)", "setting": "[2]; Breast MCF7/ADRr CL5002", "value": 5.3},
      {"measurement": "−Log (GI50)", "setting": "[2]; Colon COLO-250 CL4010", "value": 6.8},
      {"measurement": "−Log (GI50)", "setting": "[2]; NSCLC NCI-H226 CL1013", "value": 7.5},
      {"measurement": "−Log (GI50)", "setting": "[2]; Renal UO-31 CL9004", "value": 6.4}
    ]}
  ]
}
